Measured values published in patent US9346761B2, “Arginine methyltransferase inhibitors and uses thereof” (Epizyme, Inc., priority 2013, dated 2016).

Each compound was assayed on mono-methyl arginine in RKO cells (assay: RKO methylation assay, In Cell Western for mono-methyl arginine and DNA content). Conditions: Homo sapiens, RKO, 72 h.
Assay type: cell-based
In the case of `CNCCN(C)Cc1c[nH]nc1-c1ccc(F)cc1` [Compound 2, N^1-((3-(4-fluorophenyl)-1H-pyrazol-4-yl)methyl)-N^1,N^2-dimethylethane-1,2-diamine], the EC30 is reported as greater than 12 µM. `CN(CCN)Cc1cn(C2COC2)nc1-c1ccc(F)cc1` [Compound 77] gave an EC30 greater than 12 µM. `COCCn1ncc(CN(C)CCN(C)C)c1-c1ccc(F)cc1` [Compound 64] was tested, and the EC30 was greater than 12 µM. `CN(CCN)Cc1cnn(C)c1-c1ccc(F)cc1` [Compound 4] gave an EC30 greater than 12 µM. In the case of `CN(CCN)Cc1c[nH]nc1-c1ccc(C(F)(F)F)cc1C(F)(F)F` [Compound 85], the EC30 is reported as greater than 12 µM.

Same assay, conditions: Homo sapiens; In Cell Western, RKO cells, 72 hours, percent activation of mono-methyl arginine signal; read-out: EC30
`CN(CCN)Cc1c[nH]nc1-c1ccc(OC(F)F)cc1` [Compound 94] showed an EC30 of less than 3 µM. `CN(CCN)Cc1cn(CC(O)CO)nc1-c1ccc(F)cc1` (stereo not shown) [Compound 76] was tested, and the EC30 was greater than 12 µM. `CCCN(CCN)Cc1c[nH]nc1-c1ccc(F)cc1` [Compound 63] was tested, and the EC30 was greater than 12 µM. Compound `CN(CCN)Cc1cn(CCO)nc1-c1ccc(F)cc1` [Compound 66] has an EC30 greater than 12 µM. With `CNCCN(C)Cc1c[nH]nc1-c1ccc(OC)cc1OC` [Compound 55] the EC30 was greater than 12 µM. With `CN(CCN)Cc1c(-c2ccc(C#N)cc2)cnn1C` [Compound 84] the EC30 was greater than 12 µM. `CNCCN(C)Cc1c[nH]nc1-c1ccccc1O` [Compound 35] was tested, and the EC30 was greater than 12 µM. In the case of `CNCCN(C)Cc1c[nH]nc1-c1ccccc1Oc1ccccc1` [Compound 36], the EC30 is reported as greater than 12 µM. In the case of `CN(CCN)Cc1cn(C)nc1-c1ccc(F)cc1` [Compound 3], the EC30 is reported as greater than 12 µM. In the case of `CC(C)Oc1ccc(-c2n[nH]cc2CN(C)CCN)cc1` [Compound 67], the EC30 is reported as greater than 12 µM. In the case of `CNCCN(C)Cc1c[nH]nc1-c1ccc(-c2ccccc2)cc1` [Compound 47], the EC30 is reported as less than 3 µM. For `CN(CCN)Cc1c[nH]nc1-c1cccc(C#N)c1` [Compound 70], the EC30 was greater than 12 µM. In the case of `CNCCN(C)Cc1c[nH]nc1-c1c(OC)cccc1OC` [Compound 56], the EC30 is reported as greater than 12 µM. In the case of `CNCCN(C)Cc1c[nH]nc1-c1ccccc1F` [Compound 48], the EC30 is reported as greater than 12 µM. In the case of `CN(CCN)Cc1c[nH]nc1-c1cccc(F)c1` [Compound 71], the EC30 is reported as 3.01 to 12 µM. With `Cc1ccc(-c2n[nH]cc2CN(C)CCN)c(Cl)c1` [Compound 90] the EC30 was 3.01 to 12 µM. `COc1ccc(-c2n[nH]cc2CN(C)CCN)c(OC)c1` [Compound 87] showed an EC30 greater than 12 µM. `CN(CCN)Cc1c[nH]nc1-c1ccccc1F` [Compound 72] gave an EC30 greater than 12 µM. Compound `CNCCN(C)Cc1cnn(CC2CCOCC2)c1-c1ccc(F)cc1` [Compound 12] has an EC30 greater than 12 µM. `CNCCN(C)Cc1c[nH]nc1-c1ccc(C(=O)c2ccccc2)cc1` [Compound 45] showed an EC30 of less than 3 µM. `COCCn1cc(CN(C)CCN(C)C)c(-c2ccc(F)cc2)n1` [Compound 61] showed an EC30 greater than 12 µM. Work on `CNCCN(C)Cc1cnn(C)c1-c1ccc(F)cc1` [Compound 10] yielded an EC30 greater than 12 µM. `CNCCN(C)Cc1c[nH]nc1-c1cccc2ccccc12` [Compound 57] was tested, and the EC30 was greater than 12 µM. With `CN(CCN)Cc1c[nH]nc1-c1ccc(OC(F)(F)F)cc1` [Compound 93] the EC30 was less than 3 µM. `NCCN(Cc1c[nH]nc1-c1ccc(F)cc1)C1CC1` [Compound 78] showed an EC30 of 3.01 to 12 µM. Compound `CN(CCN)Cc1cnn(CC2COC2)c1-c1ccc(F)cc1` [Compound 80] has an EC30 greater than 12 µM. Compound `CNCCN(C)Cc1c[nH]nc1-c1cc(Cl)ccc1OC` [Compound 53] has an EC30 greater than 12 µM. Work on `CN(CCN)Cc1c[nH]nc1-c1ccc(C#N)cc1` [Compound 68] yielded an EC30 greater than 12 µM. `CNCCN(C)Cc1c[nH]nc1-c1ccc(CC#N)cc1` [Compound 34] gave an EC30 greater than 12 µM. Work on `CNCCN(C)Cc1cn(CC2CCOCC2)nc1-c1ccc(F)cc1` [Compound 11] yielded an EC30 greater than 12 µM. `CNCCN(C)Cc1c[nH]nc1-c1cccc(N)c1` [Compound 32] showed an EC30 greater than 12 µM. With `CN(CCN)Cc1c[nH]nc1-c1ccc(Cl)cc1Cl` [Compound 86] the EC30 was 3.01 to 12 µM. `CNCCN(C)Cc1c[nH]nc1-c1ccc(OC)c(F)c1` [Compound 52] gave an EC30 greater than 12 µM. In the case of `CCN(CCNC)Cc1c[nH]nc1-c1ccc(F)cc1` [Compound 9], the EC30 is reported as greater than 12 µM. `CN(CCN)Cc1n[nH]cc1-c1ccc(F)cc1` [Compound 69] gave an EC30 of 3.01 to 12 µM. `CN(CCN)Cc1c[nH]nc1-c1ccc(N2CCNCC2)cc1` [Compound 82] was tested, and the EC30 was greater than 12 µM. Compound `CN(CCN)Cc1cn[nH]c1-c1ccc(F)cc1` [Compound 1] has an EC30 of 3.01 to 12 µM. Compound `CN(CCN)Cc1cn(CC2COC2)nc1-c1ccc(F)cc1` [Compound 79] has an EC30 greater than 12 µM. With `CNCCN(C)Cc1c[nH]nc1-c1ccc(F)c(F)c1` [Compound 51] the EC30 was greater than 12 µM. Compound `CNCCN(C)Cc1c[nH]nc1-c1cccc(NC(C)=O)c1` [Compound 42] has an EC30 greater than 12 µM. With `CNCCN(C)Cc1c[nH]nc1-c1cccc(OC(F)(F)F)c1` [Compound 39] the EC30 was greater than 12 µM. For `CCNCCN(C)Cc1c[nH]nc1-c1ccc(F)cc1` [Compound 60], the EC30 was greater than 12 µM. Work on `CN(CCN)Cc1c[nH]nc1-c1ccc(F)cc1Cl` [Compound 89] yielded an EC30 of 3.01 to 12 µM. `CN(CCN)Cc1cnn(CCO)c1-c1ccc(F)cc1` [Compound 65] showed an EC30 greater than 12 µM. With `CNCCN(C)Cc1c[nH]nc1-c1cc(F)ccc1F` [Compound 50] the EC30 was greater than 12 µM. `CCN(CCN)Cc1c[nH]nc1-c1ccc(F)cc1` [Compound 62] was tested, and the EC30 was greater than 12 µM. `CN(CCN)Cc1cnn(C2COC2)c1-c1ccc(F)cc1` [Compound 81] was tested, and the EC30 was greater than 12 µM. For `CNCCN(C)Cc1c[nH]nc1-c1cccc(C(C)=O)c1` [Compound 44], the EC30 was greater than 12 µM. `CNCCN(C)Cc1c[nH]nc1-c1ccc(F)cc1F` [Compound 49] gave an EC30 greater than 12 µM. `CC(C)Oc1ccc(-c2n[nH]cc2CN(C)CCN)cc1Cl` [Compound 168] gave an EC30 of less than 3 µM. `CN(CCN)Cc1c[nH]nc1-c1ccccc1` [Compound 73] gave an EC30 greater than 12 µM. Work on `CNCCN(C)Cc1cn(CCC(O)CO)nc1-c1ccc(F)cc1` (stereo not shown) [Compound 59] yielded an EC30 greater than 12 µM. For `CN(CCN)Cc1nn(C)cc1-c1ccc(C#N)cc1` [Compound 83], the EC30 was 3.01 to 12 µM. With `Cc1ccc(Cl)c(-c2n[nH]cc2CN(C)CCN)c1` [Compound 91] the EC30 was greater than 12 µM. Compound `CNCCN(C)Cc1c[nH]nc1-c1cccc(OC)c1OC` [Compound 54] has an EC30 greater than 12 µM. `CNCCN(C)Cc1c[nH]nc1-c1ccccc1-c1ccccc1` [Compound 46] was tested, and the EC30 was greater than 12 µM. `Cc1ccc(-c2n[nH]cc2CN(C)CCN)c(C)c1` [Compound 88] showed an EC30 greater than 12 µM. Work on `CC(C)N(CCN)Cc1c[nH]nc1-c1ccc(F)cc1` [Compound 75] yielded an EC30 greater than 12 µM. In the case of `CNCCN(C)Cc1c[nH]nc1-c1ccccc1NS(C)(=O)=O` [Compound 41], the EC30 is reported as greater than 12 µM. `CN(CCN)Cc1c[nH]nc1-c1ccc(C(C)(C)C)cc1` [Compound 74] showed an EC30 of 3.01 to 12 µM. With `CN(CCN)Cc1c[nH]nc1-c1ccc(C(F)(F)F)cc1` [Compound 92] the EC30 was less than 3 µM. `CNCCN(C)Cc1c[nH]nc1-c1ccc2ccccc2c1` [Compound 58] gave an EC30 greater than 12 µM.
